The source of these data is PubChem BioAssay (NCI).

Among the test systems are ACHN renal; RPMI-8226 leukemia; SF-539 CNS; DLD-1 colon; DMS 114 small cell lung; UACC-257 melanoma; CCRF-CEM leukemia; OVCAR-3 ovarian; XF 498 CNS; SF-268 CNS; M19-MEL melanoma; SNB-78 CNS; HT29 colon; LXFL 529 NSCLC; HOP-18 NSCLC; MDA-MB-231 breast; DU-145 prostate.
Common to all, as to test: inhibition of tumour cell growth, NCI panel, 48 h

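These data come from cells grown in 96-well plates and exposed to compound for 48 hours at five concentrations. TGI denotes the concentration required for complete inhibition of growth.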

Turning to `CC(=O)NC(CCCCN(Cc1ccccc1)C(=O)N(C)N=O)C(=O)NCc1ccccc1` (configuration not stated), the TGI with ACHN renal, with RPMI-8226 leukemia, with SF-539 CNS, in the test on DLD-1 colon, with DMS 114 small cell lung and in the test with UACC-257 melanoma was > 100 µM each time. Further, the TGI in the test with CCRF-CEM leukemia, with OVCAR-3 ovarian, in the test on XF 498 CNS, with SF-268 CNS, in the test on M19-MEL melanoma and with SNB-78 CNS was > 100 µM each time. Besides, the TGI in the test on HT29 colon and in the test on LXFL 529 NSCLC was > 100 µM in each case.
Regarding `N#CC(C(=S)Nc1ccccc1)=C1Nc2ccccc2N1`, the TGI in the test with ACHN renal, in the test on HOP-18 NSCLC, with RPMI-8226 leukemia, in the test on SF-539 CNS, in the test with DLD-1 colon and in the test on DMS 114 small cell lung was > 10 µM each time. Also, the TGI with UACC-257 melanoma, in the test on CCRF-CEM leukemia, in the test on OVCAR-3 ovarian, with XF 498 CNS, in the test on SF-268 CNS and with M19-MEL melanoma was > 10 µM throughout. The TGI with LXFL 529 NSCLC was > 10 µM.
Regarding `NC(=S)NN=C1Cc2ccccc2C1`, the TGI in the test with ACHN renal, in the test on RPMI-8226 leukemia, in the test on SF-539 CNS, with UACC-257 melanoma, with CCRF-CEM leukemia and with OVCAR-3 ovarian was > 100 µM each time. In addition, the TGI with SF-268 CNS, with MDA-MB-231 breast, in the test on DU-145 prostate and in the test with HT29 colon was > 100 µM in each case.
For the compound `CC(O)/C=C/C1OC(=O)CC1Nc1ccc(C=O)cc1` (configuration not stated), the TGI in the test on ACHN renal was > 100 µM; with RPMI-8226 leukemia, 90.9 µM; with SF-539 CNS, > 100 µM; in the test on UACC-257 melanoma, > 100 µM; in the test on CCRF-CEM leukemia, > 100 µM; with OVCAR-3 ovarian, > 100 µM. In addition, the TGI in the test on SF-268 CNS, with MDA-MB-231 breast, in the test on DU-145 prostate and in the test with HT29 colon was > 100 µM throughout.
As to `COC(OC)[C@@H]1OC[C@H](n2ccc(=O)[nH]c2=O)[C@H]1O`, the TGI with ACHN renal, in the test with RPMI-8226 leukemia, with SF-539 CNS, with UACC-257 melanoma, in the test on CCRF-CEM leukemia and in the test on OVCAR-3 ovarian was > 100 µM in each case. In addition, the TGI in the test on SF-268 CNS, in the test with MDA-MB-231 breast, in the test on DU-145 prostate and in the test on HT29 colon was > 100 µM each time.
Turning to `CCOc1cc2cnc3c4cc(OC)c(OC)cc4ccc3c2cc1OC`, the TGI in the test on ACHN renal, in the test on HOP-18 NSCLC, with RPMI-8226 leukemia, with SF-539 CNS, in the test with DLD-1 colon and in the test with DMS 114 small cell lung was > 100 µM throughout. Further, the TGI with UACC-257 melanoma was > 100 µM; with CCRF-CEM leukemia it was 88.6 µM; in the test on OVCAR-3 ovarian, > 100 µM; in the test with SF-268 CNS, > 100 µM; in the test with M19-MEL melanoma, > 100 µM; in the test with SNB-78 CNS it was > 100 µM. In addition, the TGI in the test on HT29 colon and in the test with LXFL 529 NSCLC was > 100 µM each time.
Turning to `CCOC(=O)n1ccc2c(C(=O)OC)c(C(=O)OC)cc(/C(=C/C(=O)OC)C(=O)OC)c21`, the TGI in the test on ACHN renal, in the test on RPMI-8226 leukemia, with SF-539 CNS, in the test on UACC-257 melanoma, in the test on CCRF-CEM leukemia and with OVCAR-3 ovarian was > 100 µM in each case. Besides, the TGI in the test on SF-268 CNS, in the test on MDA-MB-231 breast, with DU-145 prostate and in the test on HT29 colon was > 100 µM in each case.
As for `NC(CCSCCF)C(=O)O` (configuration not stated), the TGI in the test on ACHN renal, in the test on HOP-18 NSCLC, in the test on RPMI-8226 leukemia, in the test on SF-539 CNS, in the test on DMS 114 small cell lung and in the test with CCRF-CEM leukemia was > 100 µM each time. For the same compound, the TGI with OVCAR-3 ovarian, in the test with SF-268 CNS, in the test on M19-MEL melanoma, in the test with SNB-78 CNS, with HT29 colon and in the test on LXFL 529 NSCLC was > 100 µM in each case.
With `CC(C)C1COC(C(C)(C)C2=N[C@@H](C(C)C)CO2)=N1` (some centres not stated), the TGI in the test with ACHN renal, in the test with HOP-18 NSCLC, with RPMI-8226 leukemia, with SF-539 CNS, with DLD-1 colon and with DMS 114 small cell lung was > 100 µM each time. The TGI with UACC-257 melanoma, in the test with CCRF-CEM leukemia, with OVCAR-3 ovarian, in the test with XF 498 CNS, with SF-268 CNS and in the test with M19-MEL melanoma was > 100 µM each time. Moreover, the TGI in the test on HT29 colon and in the test on LXFL 529 NSCLC was > 100 µM throughout.
Turning to `CCOC(=O)/C=C(\C(=O)OCC)n1cc(C)c(=O)n(Cc2cn(COCCOC(C)=O)nn2)c1=O`, the TGI with ACHN renal was 19.5 µM; in the test on RPMI-8226 leukemia it was 18.9 µM; in the test on SF-539 CNS, 9.74 µM; in the test on UACC-257 melanoma, 33.7 µM; in the test on CCRF-CEM leukemia, 5.95 µM; with OVCAR-3 ovarian, 27.6 µM. The TGI with SF-268 CNS was 31.3 µM; in the test with MDA-MB-231 breast it was 40.7 µM; with DU-145 prostate, > 100 µM; in the test with HT29 colon, 20.9 µM.
Take `CCCCCCCCCCCCCCCCCCOC(COP(=O)(O)OCC1OC(n2cc(F)c(=O)[nH]c2=O)CC1O)COP(=O)(O)OCC1OC(n2ccc(N)nc2=O)C(O)C1O` (configuration not stated): the TGI in the test with ACHN renal was > 100 µM; in the test with RPMI-8226 leukemia, > 100 µM; in the test on SF-539 CNS it was 31.1 µM; with UACC-257 melanoma, > 100 µM; with CCRF-CEM leukemia, > 81.2 µM; with OVCAR-3 ovarian it was > 100 µM. The TGI with SF-268 CNS is > 75 µM; with MDA-MB-231 breast, > 100 µM; in the test on DU-145 prostate, > 100 µM; in the test with HT29 colon, > 100 µM.
